Reference: US7968294B2, “SLIT2 underexpression in metastatic prostate cancer” (The Regents of the University of Michigan, priority 2008, dated 2011)
“Also recorded” adds a separate entry of the source.

Tested on: SLIT2 expression in prostate cancer cell lines
Assay: QRT-PCR analysis of SLIT2 transcript after compound treatment
Format: cell-based, human
Conditions: normalized to GAPDH housekeeping gene, FIG. 4c-e, DU145 prostate cancer cell lines, 5 uM SAHA time-course in panel d

Structure (SMILES): Nc1nccc2c1ncn2C1C=C(CO)C(O)C1O (centres unmarked) [DZNep]
- SLIT2 expression (transcript level): Marked up-regulation

Structure (SMILES): O=C(CCCCCCC(=O)Nc1ccccc1)NO [SAHA]
- SLIT2 expression (transcript level): restore the expression level of SLIT2; also recorded: up-regulated
